Patent publication US8580762B2, “Substituted purine and 7-deazapurine compounds” (Epizyme, Inc., priority 2010, dated 2013)

biological target: DOT1L(1-416) (Homo sapiens, UniProt Q8TEK3); assay: Determination of IC50: DOT1L(1-416) methyltransferase assay, 3H-SAM, oligonucleosome substrate, Flashplate; format: biochemical; conditions: class symbols; read-out: DOT1L IC50
Description: Determination of IC50. Test compounds were serially diluted 3 fold in DMSO for 10 points and 1 μl was plated in a 384 well microtiter plate. […] 10 μl per well of substrate mix (same assay buffer with 200 nM S-[methyl-^3H]-adenosyl-L methionine, 600 nM of unlabeled […], and 20 nM oligonueleosome) was added to initiate the reaction. Reaction was incubated for 120 minutes at room temperature and quenched with 10 μl per well of 100 μM S-methyl-adenosyl-L methionine. For detection, substrate from 50 μl of reaction was immobilized on a 384 well Streptavidin coated Flashplate (Perkin Elmer) (also coated with 0.2% polyethyleneimine) and read on a Top Count scintillation counter (Perkin Elmer).

Sequence of DOT1L(1-416) (Q8TEK3 1-416): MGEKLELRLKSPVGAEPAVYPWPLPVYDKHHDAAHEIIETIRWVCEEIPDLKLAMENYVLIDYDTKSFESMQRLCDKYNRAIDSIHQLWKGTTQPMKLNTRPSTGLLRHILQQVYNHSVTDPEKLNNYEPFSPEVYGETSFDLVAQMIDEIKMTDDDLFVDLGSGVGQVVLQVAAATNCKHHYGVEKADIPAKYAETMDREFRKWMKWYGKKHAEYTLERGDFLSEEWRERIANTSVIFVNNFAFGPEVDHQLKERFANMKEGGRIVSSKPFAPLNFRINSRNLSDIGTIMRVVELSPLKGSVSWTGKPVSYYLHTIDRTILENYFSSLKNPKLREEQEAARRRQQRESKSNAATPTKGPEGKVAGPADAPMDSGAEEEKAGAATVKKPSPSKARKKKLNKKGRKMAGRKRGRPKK

SMILES | IC50
CC(C)N(C[C@H]1C[C@@H](n2ccc3c(N)ncnc32)[C@H](O)[C@@H]1O)[C@H]1C[C@H](CCc2nc3cc(OC(F)(F)F)ccc3[nH]2)C1 [Compound 61, (1R,2S,3R,5R)-3-(4-amino-7H-pyrrolo[2,3-d]pyrimidin-7-yl)-5-((isopropyl((1s,3R)-3-(2-(5-(trifluoromethoxy)-1H-benzo[d]imidazol-2-yl)ethyl)cyclobutyl)amino)methyl)cyclopentane-1,2-diol] | 100 to 1000 nM
CN(C[C@H]1C[C@@H](n2ccc3c(N)ncnc32)[C@H](O)[C@@H]1O)C1CC(CCc2nc3cc(C4COC4)ccc3[nH]2)C1 (stereo partly drawn) [Compound 62, (1R,2S,3R,5R)-3-(4-amino-7H-pyrrolo[2,3-d]pyrimidin-7-yl)-5-((methyl(3-(2-(5-(oxetan-3-yl)-1H-benzo[d]imidazol-2-yl)ethyl)cyclobutyl)amino)methyl)cyclopentane-1,2-diol] | 100 to 1000 nM
CN(C[C@H]1O[C@@H](n2cnc3c(N)ncnc32)[C@H](O)[C@@H]1O)[C@H]1C[C@@H](CCc2nc3cc(C4COC4)ccc3[nH]2)C1 [Compound 63] | 100 to 1000 nM
CN(C[C@H]1O[C@@H](n2cnc3c(N)ncnc32)[C@H](O)[C@@H]1O)C1CC(CCc2nc3cc(C4COC4)ccc3[nH]2)C1 (stereo partly drawn) [Compound 64, (2R,3R,4S,5R)-2-(6-amino-9H-purin-9-yl)-5-((methyl(3-(2-(5-(oxetan-3-yl)-1H-benzo[d]imidazol-2-yl)ethyl)cyclobutyl)amino)methyl)tetrahydrofuran-3,4-diol] | 100 to 1000 nM
CN(C[C@H]1O[C@@H](n2cnc3c(N)ncnc32)[C@H](O)[C@@H]1O)[C@H]1C[C@H](CCc2nc3cc(C4COC4)ccc3[nH]2)C1 [Compound 65, (2R,3R,4S,5R)-2-(6-amino-9H-purin-9-yl)-5-((methyl((1s,3R)-3-(2-(5-(oxetan-3-yl)-1H-benzo[d]imidazol-2-yl)ethyl)cyclobutyl)amino)methyl)tetrahydrofuran-3,4-diol] | 100 to 1000 nM
CC(C)(C)c1ccc2[nH]c(CCC3CC(N(C[C@H]4C[C@@H](n5ccc6c(N)ncnc65)[C@H](O)[C@@H]4O)CC(F)(F)F)C3)nc2c1 (stereo partly drawn) [Compound 66, (1R,2S,3R,5R)-3-(4-amino-7H-pyrrolo[2,3-d]pyrimidin-7-yl)-5-(((3-(2-(5-(tert-butyl)-1H-benzo[d]imidazol-2-yl)ethyl)cyclobutyl) (2,2,2-trifluoroethyl)amino)methyl)cyclopentane-1,2-diol] | 100 to 1000 nM
CC(C)N(C[C@H]1O[C@@H](n2cnc3c(N)ncnc32)[C@H](O)[C@@H]1O)C1CC(CCc2nc3cc(C4CCC4)ccc3[nH]2)C1 (stereo partly drawn) [Compound 67, (2R,3R,4S,5R)-2-(6-amino-9H-purin-9-yl)-5-[({3-[2-(5-cyclobutyl-1H-1,3-benzodiazol-2-yl)ethyl]cyclobutyl}(propan-2-yl)amino)methyl]oxolane-3,4-diol] | < 100 nM
CN(C[C@H]1O[C@@H](n2cnc3c(N)ncnc32)[C@H](O)[C@@H]1O)[C@H]1C[C@@H](CCc2nc3cc(C(C)(C)C)ccc3[nH]2)C1 [Compound 71, (2R,3R,4S,512)-2-(6-amino-9H-purin-9-yl)-5-((((1r,3S)-3-(2-(5-(tert-butyl)-1H-benzo[d]imidazol-2-yl)ethyl)cyclobutyl)(methyl)amino)methyl)tetrahydrofuran-3,4-diol] | < 100 nM

Second part, the compound after the results:

IC50 | SMILES
< 100 nM | CN(C[C@H]1C[C@@H](n2ccc3c(N)ncnc32)[C@H](O)[C@@H]1O)[C@H]1C[C@@H](CCc2nc3cc(Cl)c(Cl)cc3[nH]2)C1 [Compound 52, (1R,2S,3R,5R)-3-(4-amino-7H-pyrrolo[2,3-d]pyrimidin-7-yl)-5-((((1r,3S)-3-(2-(5,6-dichloro-1H-benzo[d]imidazol-2-yl)ethyl)cyclobutyl)(methyl)amino)methyl)cyclopentane-1,2-diol]
< 100 nM | CC(C)CN(C[C@H]1C[C@@H](n2ccc3c(N)ncnc32)[C@H](O)[C@@H]1O)[C@H]1C[C@@H](CCc2nc3cc(C(C)(C)C)ccc3[nH]2)C1 [Compound 53, (1R,2S,3R,5R)-3-(4-amino-7H-pyrrolo[2,3-d]pyrimidin-7-yl)-5-((((1r,3S)-3-(2-(5-(tert-butyl)-1H-benzo[d]imidazol-2-yl)ethyl)cyclobutyl)(isobutyl)amino)methyl)cyclopentane-1,2-diol]
< 100 nM | CC(C)(C)c1ccc2[nH]c(CC[C@H]3C[C@H](N(CC4CC4)C[C@H]4C[C@@H](n5ccc6c(N)ncnc65)[C@H](O)[C@@H]4O)C3)nc2c1 [Compound 54, (1R,2S,3R,5R)-3-(4-amino-7H-pyrrolo[2,3-d]pyrimidin-7-yl)-5-((((1s,3R)-3-(2-(5-(tert-butyl)-1H-benzo[d]imidazol-2-yl)ethyl)cyclobutyl)(cyclopropylmethyl)amino)methyl)cyclopentane-1,2-diol]
< 100 nM | CN(C[C@H]1C[C@@H](n2ccc3c(N)ncnc32)[C@H](O)[C@@H]1O)[C@H]1C[C@H](CCc2nc3cc(Br)ccc3[nH]2)C1 [Compound 55, (1R,2S,3R,5R)-3-(4-amino-7H-pyrrolo[2,3-d]pyrimidin-7-yl)-5-((((1s,3R)-3-(2-(5-bromo-1H-benzo[d]imidazol-2-yl)ethyl)cyclobutyl)(methyl)amino)methyl)cyclopentane-1,2-diol]
< 100 nM | CC(C)N(C[C@H]1C[C@@H](n2ccc3c(N)ncnc32)[C@H](O)[C@@H]1O)C1CC(CCc2nc3cc(OC(F)(F)F)ccc3[nH]2)C1 (stereo partly drawn) [Compound 56, (1R,2S,3R,5R)-3-(4-amino-7H-pyrrolo[2,3-d]pyrimidin-7-yl)-5-((isopropyl(3-(2-(5-(trifluoromethoxy)-1H-benzo[d]imidazol-2-yl)ethyl)cyclobutyl)amino)methyl)cyclopentane-1,2-diol]
< 100 nM | CN(C[C@H]1C[C@@H](n2ccc3c(N)ncnc32)[C@H](O)[C@@H]1O)[C@H]1C[C@H](CCc2nc3cc(OC(F)(F)F)ccc3[nH]2)C1 [Compound 57, (1R,2S,3R,5R)-3-(4-amino-7H-pyrrolo[2,3-d]pyrimidin-7-yl)-5-((methyl((1s,3R)-3-(2-(5-(trifluoromethoxy)-1H-benzo[d]imidazol-2-yl)ethyl)cyclobutyl)amino)methyl)cyclopentane-1,2-diol]
< 100 nM | CN(C[C@H]1C[C@@H](n2ccc3c(N)ncnc32)[C@H](O)[C@@H]1O)[C@H]1C[C@H](CCc2nc3cc(Cl)c(Cl)cc3[nH]2)C1 [Compound 58, (1R,2S,3R,5R)-3-(4-amino-7H-pyrrolo[2,3-d]pyrimidin-7-yl)-5-((((1s,3R)-3-(2-(5,6-dichloro-1H-benzo[d]imidazol-2-yl)ethyl)cyclobutyl)(methyl)amino)methyl)cyclopentane-1,2-diol]
< 100 nM | CC(C)(C)c1ccc2[nH]c(CC[C@H]3C[C@H](N(CC4CCC4)C[C@H]4C[C@@H](n5ccc6c(N)ncnc65)[C@H](O)[C@@H]4O)C3)nc2c1 [Compound 59, (1R,2S,3R,5R)-3-(4-amino-7H-pyrrolo[2,3-d]pyrimidin-7-yl)-5-((((1s,3R)-3-(2-(5-(tert-butyl)-1H-benzo[d]imidazol-2-yl)ethyl)cyclobutyl)(cyclobutylmethyl)amino)methyl)cyclopentane-1,2-diol]
< 100 nM | CC(C)N(C[C@H]1C[C@@H](n2ccc3c(N)ncnc32)[C@H](O)[C@@H]1O)[C@H]1C[C@@H](CCc2nc3cc(OC(F)(F)F)ccc3[nH]2)C1 [Compound 60, (1R,2S,3R,5R)-3-(4-amino-7H-pyrrolo[2,3-d]pyrimidin-7-yl)-5-((isopropyl((1r,3S)-3-(2-(5-(trifluoromethoxy)-1H-benzo[d]imidazol-2-yl)ethyl)cyclobutyl)amino)methyl)cyclopentane-1,2-diol]
